# Test results from patent publication US10941399B2, “Methods and compositions for gene-specific demethylation by DNA methyltransferase (DNMT)-RNA interaction” (Beth Israel Deaconess Medical Center, Inc., priority 2011, dated 2021).
# Entries after “also recorded” stand apart in the source; their conditions may differ. [5mC] = 5-methylcytosine
# Legend:
# myeloma cells = settings: cited from earlier work
# HL-60 cells = assay: DRB and ML-60218 treatment of HL-60 cells, transcript levels by Taqman qRT-PCR; type: cell-based, human
# Experimental: qRT-PCR: Sybr green reactions were performed using iQ Sybr Green supermix (Biorad, Hercules, Calif.) using the following parameters: 95° C. (10 min.), 40 cycles of 95° C. (15 sec.) and 60° C. (1 min.), and 72° C. (1 min.). TaqMan analysis was performed using Hotstart Probe One-step qRT-PCR master mix (USB) at the following conditions: 50° C. (10 min.), 95° C. (2 min.), and then 40 cycles of 95° C. (15 sec.) and 60° C. (60 sec.). qRT PCR primers were located in the coding region for the mRNA (black double headed arrow) and after the polyA signal for the ecRNA (white double headed arrow) (FIG. 1A). The sequences of primers used for TaqMan real time PCR were as follows: human C/EBPa: Forward 5′-TCG GTG GACAAG AAC AG-3′ (SEQ ID NO:18), Reverse 5′-GCA GGC GGT CAT TG-3′ (SEQ ID NO:19), and Taqman Probe 5′-ACA AGGCCA AGC AGC GC-3′ (SEQ ID NO:20); ecRNA: Forward 5′-GGTTGTCTGTGGGCCAGGTCA-3′(SEQ ID NO:21), Reverse 5′-AGAGCTCATGAAAGTCAGGATTG-3′ (SEQ ID NO:22), and Taqman Probe 5′-AAT AAT ACAGCA TTT TCC CTG GCG G-3′(SEQ ID NO:23); human C/EBPγ: Forward: 5′-GGC TAG AGG AGC AGGTAC AT-3′ (SEQ ID NO:24), Reverse: 5′-GCCTGGGTATGGATAACACTA-3′ (SEQ ID NO:25), and Taqman Probe: 5′-CGACAC CAC TCA TGT CAA TGG CTG-3′ (SEQ ID NO:26); human TP73: ABI Cat. #Hs01060631_m1; 18S rRNA: ABI Cat. #4310893E; and human 5S rRNA: ABI Cat. #Hs02385257_g1. The sequences of primers used for real-time RT PCR (Sybr) were as follows: human C/EBPa: Forward: 5′-CCG CTC CTCCAC GCC TGT CCT TAG-3′ (SEQ ID NO:27) and Reverse: 5′-GCCCCACAGCCAGATCTCTAGGTC-3′ (SEQ ID NO:28); ecRNA: Forward: 5′-TCATGAGCTCTCCATCCATCCTGA-3′(SEQ ID NO:29) and Reverse: 5′-CTG GCCGAG GGT CCT GCT GGA ATC-3′ (SEQ ID NO:30); and β-ACTIN Promega Cat. #G5740.
# Double thymidine block (early S-phase block): HL-60 cells were grown overnight to 70-80% confluence, washed twice with 1×PBS, and cultured in DMEM (10% FCS)+2.5 mM thymidine for 18 h (first block). Thymidine was washed out with 1×PBS, and cells were grown in DMEM (10% FCS). After 8 hours, cells were cultured in presence of thymidine for 18 h (second block) and then released as described. Synchrony was monitored by flow cytometry analysis of propidium iodide-stained cells using a LSRII flow cytometer (BD Biosciences) at the Harvard Stem Cell Institute/Beth Israel Deaconess Center flow cytometry facility.
# DRB and ML-60218 treatment: After release from double thymidine block, HL-60 cells were treated with 100 μM of 5,6-Dichlorobenzimidazole 1-β-D-ribofuranoside (DRB) (Sigma Aldrich) for 1, 2, and 3 hours. HL-60 cells were treated with 25 μM ML-60218 (2-chloro-N[5-(5-chloro-3-methyl-1-benzothiophen-2-yl)-2-methylpyrazol-3-yl]benzenesulfonamide, Calbiochem®) for 24 hours. Total RNA was harvested as described above and expression levels of C/EBPa, ecRNA, and 5S were measured by Taqman qRT-PCR.
# DNMT1 = DNMT1 (Homo sapiens, UniProt P26358); assay: Electrophoretic gel mobility shift assays (EMSA/REMSA) and Kd determination with purified DNMT1; type: binding; set-up: purchased BPS Bioscience Inc; settings: for Kd: constant oligonucleotide concentration (1 nM) titrated with increasing DNMT1, nonlinear regression, read-out: dissociation constant (Kd)
# Experimental: Electrophoretic gel mobility shift assays (EMSAs) and Kd determination: DNA and RNA oligonucleotides (15 pmol) were end-labeled with [γ-32P] ATP (Perkin Elmer) and T4 polynucleotide kinase (New England Biolabs). Reactions were incubated at 37° C. for 1h and then passed through G-25 spin columns (GE Healthcare) according to the manufacturer's instructions to remove unincorporated radioactivity. Labeled samples were gel-purified on 10% polyacrylamide gels. Binding reactions were carried out in 10 μL volumes in the following buffer: 5 mM Tris pH 7.4, 5 mM MgCl2, 1 mM DTT, 3% v/v glycerol, 100 mM NaCl. Various amounts of purified DNMT1 protein (BPS Bioscience Inc., 0.021-0.156 μM) were incubated with 1.1 nM of 32P-labeled dsDNA and ss/ds RNAs. In the competitive assay, a fixed amount of protein and increasing amounts of competitors (dsDNA or poly (dI-dC)) were used. All reactions were assembled on ice and then incubated at room temperature. Samples were loaded onto 6% native polyacrylamide gels (0.5×TBE) at 4° C. for 3 h at 140 V. Gels were dried and exposed to X-ray film and a PhosphorImager screen. Data were analyzed with ImageQuant software. For affinity assays, the percent shifted species was determined as follows: the migration of the labeled DNA in this reaction was defined as zero percent shifted and the ratio of the PhosphorImager counts in the area of the lane above this band to the total counts in the lane was defined as background and subtracted from all other lanes. This band represented total input. Subsequent lanes containing DNMT1-nucleic acid complexes were treated identically, and the percentage complex formation was calculated as follows: [Input-(free probe for each lane+background/input)]. All experiments contained a control reaction lacking DNMT1. The percentage complex formation was plotted as a function of DNMT1 concentration using nonlinear regression analysis using Prism 4.0a.
# [1] = 100 μM DRB, 1, 2, 3 h after release from double thymidine block
# Chain of DNMT1 (P26358 whole entry): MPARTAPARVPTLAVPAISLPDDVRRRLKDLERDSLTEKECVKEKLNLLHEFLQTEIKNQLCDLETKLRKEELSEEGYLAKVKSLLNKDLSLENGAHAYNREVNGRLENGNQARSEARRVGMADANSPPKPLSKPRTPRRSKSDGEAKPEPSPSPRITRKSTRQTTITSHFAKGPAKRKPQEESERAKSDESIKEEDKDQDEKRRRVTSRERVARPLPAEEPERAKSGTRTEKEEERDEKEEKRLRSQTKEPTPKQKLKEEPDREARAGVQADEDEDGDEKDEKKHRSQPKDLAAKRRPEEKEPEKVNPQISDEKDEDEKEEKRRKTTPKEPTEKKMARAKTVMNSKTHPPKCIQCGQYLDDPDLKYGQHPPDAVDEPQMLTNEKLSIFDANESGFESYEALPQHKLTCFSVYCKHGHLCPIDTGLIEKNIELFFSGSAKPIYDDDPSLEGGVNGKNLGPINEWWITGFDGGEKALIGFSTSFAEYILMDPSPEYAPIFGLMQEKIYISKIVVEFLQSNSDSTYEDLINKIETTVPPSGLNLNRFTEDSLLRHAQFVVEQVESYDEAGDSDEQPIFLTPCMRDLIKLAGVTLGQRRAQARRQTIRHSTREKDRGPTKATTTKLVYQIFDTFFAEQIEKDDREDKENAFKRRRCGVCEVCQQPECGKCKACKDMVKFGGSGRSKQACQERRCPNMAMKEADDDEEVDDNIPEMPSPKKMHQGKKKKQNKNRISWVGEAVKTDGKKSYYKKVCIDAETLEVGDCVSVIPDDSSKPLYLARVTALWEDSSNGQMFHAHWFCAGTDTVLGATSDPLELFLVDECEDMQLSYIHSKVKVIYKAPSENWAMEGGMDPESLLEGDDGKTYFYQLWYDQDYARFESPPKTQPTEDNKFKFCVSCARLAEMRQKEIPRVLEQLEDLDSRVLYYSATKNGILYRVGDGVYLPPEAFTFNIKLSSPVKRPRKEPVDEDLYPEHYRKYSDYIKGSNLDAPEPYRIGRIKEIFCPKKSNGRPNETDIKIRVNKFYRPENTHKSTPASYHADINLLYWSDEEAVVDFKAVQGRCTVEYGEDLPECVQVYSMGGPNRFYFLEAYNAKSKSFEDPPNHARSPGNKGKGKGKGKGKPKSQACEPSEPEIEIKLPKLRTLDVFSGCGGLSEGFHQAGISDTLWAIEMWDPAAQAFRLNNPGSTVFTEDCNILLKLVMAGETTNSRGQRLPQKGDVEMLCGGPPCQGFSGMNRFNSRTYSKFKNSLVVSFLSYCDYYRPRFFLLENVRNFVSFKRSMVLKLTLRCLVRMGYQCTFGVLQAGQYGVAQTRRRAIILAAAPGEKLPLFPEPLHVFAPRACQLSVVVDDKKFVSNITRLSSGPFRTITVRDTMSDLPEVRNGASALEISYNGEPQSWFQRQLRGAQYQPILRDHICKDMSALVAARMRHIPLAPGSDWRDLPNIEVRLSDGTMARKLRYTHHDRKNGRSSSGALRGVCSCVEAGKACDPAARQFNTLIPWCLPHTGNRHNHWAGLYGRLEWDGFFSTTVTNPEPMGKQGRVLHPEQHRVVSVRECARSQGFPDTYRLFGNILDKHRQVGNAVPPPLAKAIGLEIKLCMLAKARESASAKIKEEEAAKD
molecule,measurement,setting,value
Nc1ncn([C@H]2C[C@H](O)[C@@H](CO)O2)c(=O)n1 [5-aza-2′-deoxycytidine],PU.1 expression,myeloma cells,upregulation
same,growth of myeloma cells,myeloma cells,growth arrest
"OC[C@H]1O[C@@H](n2cnc3cc(Cl)c(Cl)cc32)[C@H](O)[C@@H]1O [DRB, 5,6-Dichlorobenzimidazole 1-β-D-ribofuranoside]",C/EBPa mRNA expression level,HL-60 cells; [1],strong down-regulation
same,ecRNA expression level,HL-60 cells; [1],no decrease; also recorded: did not reduce
"Cc1c(-c2cc(NS(=O)(=O)c3ccccc3Cl)n(C)n2)sc2ccc(Cl)cc12 [ML-60218, 2-chloro-N[5-(5-chloro-3-methyl-1-benzothiophen-2-yl)-2-methylpyrazol-3-yl]benzenesulfonamide]",5S rRNA level,"HL-60 cells; 25 μM ML-60218, 24 hours",significantly reduced
same,C/EBPa mRNA level,"HL-60 cells; 25 μM ML-60218, 24 hours",little effect; also recorded: only moderately affected
same,ecRNA level,"HL-60 cells; 25 μM ML-60218, 24 hours",marked down-regulation; also recorded: significantly reduced
NCCCNCCCCNCCCN [spermine],effect of spermine on RNA-DNMT1 binding,DNMT1; REMSA with increasing concentrations of spermine,Only a thousand-fold molar excess of spermine began to moderately affect the binding; also recorded: no significant changes in binding were observed
"R04: ssRNA oligonucleotide of C/EBPa ecRNA, positions 4777-4798 of SEQ ID NO:8 (SEQ ID NO:63), lacking stem-and-loop-like structures (UCACACACACCGCAGCUCCAGA; chemistry not given here; listed as Homo sapiens)",DNMT1 binding affinity in REMSA (in words),DNMT1,did not display the same binding affinity as folded RNA; also recorded: lower DNMT1 affinity compared to R05
"RNA: folded ssRNA oligonucleotide of C/EBPa ecRNA, positions 4627-4648 of SEQ ID NO:8 (SEQ ID NO:62) (CUGAGGCCUUGGCGAGGCUUCU; chemistry not given here; listed as Homo sapiens)",Kd,DNMT1; EMSA,0.045 µM
same,DNMT1 concentration at which initial complex is formed,"DNMT1; EMSA, increasing DNMT1 concentrations",< 0.013 µM
same,strength of DNMT1 complex with RNA compared to hmDNA and mDNA,DNMT1; ratio versus hmDNA and mDNA,3 fold
same,strength of DNMT1 complex with RNA compared to umDNA,DNMT1; ratio versus umDNA,2 fold
"hmDNA: hemimethylated dsDNA probe (SEQ ID NOs:65, 72) (chain 1 CTGAGGCCTTGGCGAGGCTTCT; chain 2 AGAAGCCTCGCCAAGGCCTCAG; chain 1: DNA, [5mC] at 13, backbone and methylation of C not given here; chain 2: DNA, backbone not given here; listed as Homo sapiens)",Kd,DNMT1; EMSA,0.14 µM
"mDNA: methylated dsDNA probe (SEQ ID NOs:66, 73) (chain 1 CTGAGGCCTTGGCGAGGCTTCT; chain 2 AGAAGCCTCGCCAAGGCCTCAG; chain 1: DNA, [5mC] at 13, backbone not given here; chain 2: DNA, [5mC] at 9, backbone not given here; listed as Homo sapiens)",Kd,DNMT1; EMSA,0.11 µM
mutated R01: R01 with C to U substitutions in CpG dinucleotides (SEQ ID NO:69) (CUGGGAUGCAGGUGGUGUCAGGC; chemistry not given here; listed as Homo sapiens),DNMT1 binding after C to U substitution of CpG dinucleotides,DNMT1; stem-and-loop-like structure preserved,not affected
"umDNA: unmethylated dsDNA probe (SEQ ID NOs:64, 71) (chain 1 CTGAGGCCTTGGCGAGGCTTCT; chain 2 AGAAGCCTCGCCAAGGCCTCAG; DNA, backbone not given here; listed as Homo sapiens)",Kd,DNMT1; EMSA,0.082 µM
